Drawing on DBAASP, this text covers MIC for ten compounds.

Among the test systems are Bacillus subtilis 168; Staphylococcus aureus; Escherichia coli B; Pseudomonas aeruginosa; Bacillus subtilis; Escherichia coli JW0013.
Holding throughout (assay): ≥ marks a high value that may be exact or a test limit, other limits are often not marked, values filed in µg/mL are converted to µM
Assay [1] concerns Candida albicans F7-39/IDE99.
Assay [2] has as its system Candida albicans NCPF 1467.
The subject of assay [3] is Staphylococcus aureus NCTC 10788.
The test system of assay [4] is Escherichia coli NCTC 10418.

Values after ≈ are worked out from the molar mass of the structure shown.

As for `CSCC[C@H](NC(=O)CNC(=O)[C@H](Cc1ccccc1)NC(=O)[C@H](C)N)C(=O)N[C@@H](C)C(=O)N[C@@H](CC(C)C)C(=O)N[C@@H](CCCCN)C(=O)N[C@@H](CC(C)C)C(=O)N[C@@H](CC(C)C)C(=O)N[C@@H](CCCCN)C(=O)N[C@@H](CCCCN)C(=O)N[C@H](C(=O)N[C@@H](CC(C)C)C(N)=O)C(C)C` [AFGMALKLLKKVL], the MIC is 1.3 µM (≈ 1.86 µg/mL) in the assay with Bacillus subtilis 168; 4.7 µM (≈ 6.73 µg/mL) in the assay with Staphylococcus aureus; 10 µM (≈ 14.3 µg/mL) in assay [1]; 4.7 µM (≈ 6.73 µg/mL) in the assay with Escherichia coli B; 38.3 µM (≈ 54.8 µg/mL) against Pseudomonas aeruginosa.

On to `CC[C@H](C)[C@H](NC(=O)[C@H](C)NC(=O)CNC(=O)[C@H](Cc1ccccc1)NC(=O)[C@@H](N)Cc1ccccc1)C(=O)N[C@@H](C)C(=O)N[C@@H](C)C(=O)N[C@@H](C)C(=O)N[C@@H](CC(C)C)C(=O)N1CCC[C@H]1C(=O)N[C@@H](Cc1cnc[nH]1)C(=O)N[C@H](C(=O)N[C@H](C(=O)N[C@@H](CO)C(=O)N[C@@H](C)C(=O)N[C@H](C(=O)N[C@@H](CCCCN)C(=O)N[C@@H](CC(N)=O)C(=O)N[C@@H](C)C(=O)N[C@@H](CC(C)C)C(=O)O)[C@@H](C)CC)[C@@H](C)CC)C(C)C` [FFGAIAAALPHVISAIKNAL], for which the MIC was not below 120 µM in assay [2] and 16 µM (≈ 32.4 µg/mL) in [3].

For the compound `CC[C@H](C)[C@H](NC(=O)[C@H](CC(C)C)NC(=O)[C@H](CO)NC(=O)[C@@H](NC(=O)[C@H](CC(C)C)NC(=O)[C@H](C)NC(=O)[C@@H]1CCCN1C(=O)[C@@H](NC(=O)[C@H](CC(C)C)NC(=O)[C@H](Cc1ccccc1)NC(=O)[C@@H]1CCCN1C(=O)[C@H](CC(C)C)NC(=O)[C@@H](N)Cc1ccccc1)[C@@H](C)CC)[C@@H](C)O)C(=O)N[C@@H](CO)C(=O)N[C@@H](CO)C(=O)N[C@@H](CC(C)C)C(N)=O` [FLPFLIPALTSLISSL], the results for the MIC in [2] and in [3] were not below 150 µM and not below 50 µM, respectively.

For `CC[C@H](C)[C@H](NC(=O)[C@H](CO)NC(=O)CNC(=O)CNC(=O)[C@@H](NC(=O)[C@H](CC(C)C)NC(=O)[C@H](CO)NC(=O)[C@@H]1CCCN1C(=O)[C@@H](NC(=O)[C@H](CC(C)C)NC(=O)[C@H](CO)NC(=O)[C@H](CC(C)C)NC(=O)[C@@H](N)Cc1ccccc1)[C@@H](C)CC)C(C)C)C(=O)N[C@@H](CO)C(=O)N[C@@H](C)C(=O)N[C@@H](Cc1ccccc1)C(=O)N[C@@H](CCCCN)C(=O)O` [FLSLIPSLVGGSISAFK], the MIC in [4] was not below 160 µM; in assay [2] it was not below 160 µM; in assay [3] it was not below 120 µM.

On to `CC[C@H](C)[C@H](NC(=O)[C@H](C)NC(=O)[C@H](C)NC(=O)[C@H](CC(C)C)NC(=O)[C@@H](NC(=O)[C@H](CCCCN)NC(=O)[C@H](CCCNC(=N)N)NC(=O)[C@@H]1CCCN1C(=O)[C@H](CC(C)C)NC(=O)CN)[C@@H](C)CC)C(=O)N[C@@H](C)C(=O)N[C@@H](CCCCN)C(=O)N[C@@H](CCCCN)C(=O)N[C@@H](CCCCN)C(=O)NCC(=O)N[C@@H](CCCCN)C(=O)N[C@H]1CSSC[C@@H](C(=O)O)NC(=O)[C@H](CCCCN)NC(=O)[C@H](C)NC(=O)[C@H](C(C)C)NC(=O)[C@H](CC(C)C)NC(=O)[C@H](CCCCN)NC(=O)[C@H](CC(C)C)NC(=O)[C@@H]2CCCN2C(=O)CNC(=O)[C@H](CCCCN)NC1=O` [GLPRKILAAIAKKKGKCKGPLKLVAKC], for which the MIC in the assay with Bacillus subtilis was 4.2 µM (≈ 11.9 µg/mL); with Staphylococcus aureus, more than 100 µM; in [1], not below 50 µM; in the assay on Escherichia coli B, not below 100 µM; against Pseudomonas aeruginosa, more than 100 µM.

For the compound `CC[C@H](C)[C@H](NC(=O)CNC(=O)[C@@H]1CCCN1C(=O)[C@H](CC(C)C)NC(=O)[C@H](C)NC(=O)[C@H](CC(N)=O)NC(=O)[C@H](CCCCN)NC(=O)[C@H](Cc1ccccc1)NC(=O)[C@H](C)NC(=O)[C@H](CO)NC(=O)[C@H](CC(C)C)NC(=O)[C@@H](NC(=O)CN)C(C)C)C(=O)N[C@@H](CCSC)C(=O)N[C@@H](CCCCN)C(=O)N[C@H](C(=O)N[C@H](C(=O)N[C@H](C(N)=O)C(C)C)[C@@H](C)CC)[C@@H](C)CC` [GVLSAFKNALPGIMKIIV], the MIC was not below 34.2 µM in [4], 8.55 µM (≈ 16 µg/mL) in assay [2] and 4.28 µM (≈ 8 µg/mL) in [3].

`CC[C@H](C)[C@H](NC(=O)[C@H](CCCN=C(N)N)NC(=O)[C@H](CCCN=C(N)N)NC(=O)[C@@H]1CCCN1C(=O)[C@@H]1CCCN1C(=O)[C@H](CCCN=C(N)N)NC(=O)[C@H](CCCN=C(N)N)NC(=O)[C@H](CCCN=C(N)N)NC(=O)[C@@H]1CCCN1C(=O)[C@H](CC(C)C)NC(=O)[C@H](Cc1ccc(O)cc1)NC(=O)[C@H](Cc1cnc[nH]1)NC(=O)[C@H](CCCN=C(N)N)NC(=O)[C@H](CCCCN)NC(=O)[C@H](CC(=O)O)NC(=O)[C@@H](N)C(C)C)C(=O)N[C@@H](Cc1ccc(O)cc1)C(=O)N[C@@H](CC(N)=O)C(=O)N[C@@H](CCCN=C(N)N)C(N)=O` [VDKRHYLPRRRPPRRIYNR] came in with an MIC against Escherichia coli JW0013 of 0.628 µM (≈ 1.6 µg/mL).

Take `CC[C@H](C)[C@H](NC(=O)[C@H](CCCN=C(N)N)NC(=O)[C@H](CCCN=C(N)N)NC(=O)[C@@H]1CCCN1C(=O)[C@@H]1CCCN1C(=O)[C@H](CCCN=C(N)N)NC(=O)[C@@H]1CCCN1C(=O)[C@H](CCCN=C(N)N)NC(=O)[C@@H]1CCCN1C(=O)[C@H](CCCCN)NC(=O)[C@H](CCCN=C(N)N)NC(=O)[C@@H]1CCCN1C(=O)[C@H](CCCN=C(N)N)NC(=O)[C@H](CCCCN)NC(=O)[C@H](CC(=O)O)NC(=O)[C@@H](N)C(C)C)C(=O)N[C@@H](Cc1ccc(O)cc1)C(=O)N[C@@H](CC(N)=O)C(=O)N[C@@H](CCCN=C(N)N)C(N)=O` [VDKRPRKPRPRPPRRIYNR]: the MIC in the assay with Escherichia coli JW0013 came out at 1.34 µM (≈ 3.3 µg/mL).

`CC[C@H](C)[C@H](NC(=O)[C@H](CCCN=C(N)N)NC(=O)[C@H](CCCN=C(N)N)NC(=O)[C@@H]1CCCN1C(=O)[C@@H]1CCCN1C(=O)[C@H](CCCN=C(N)N)NC(=O)[C@H](CCCCN)NC(=O)[C@H](CCCN=C(N)N)NC(=O)[C@@H]1CCCN1C(=O)[C@H](CCCCN)NC(=O)[C@H](Cc1ccc(O)cc1)NC(=O)[C@@H]1CCCN1C(=O)[C@H](CCCN=C(N)N)NC(=O)[C@H](CCCCN)NC(=O)[C@H](CC(=O)O)NC(=O)[C@@H](N)C(C)C)C(=O)N[C@@H](Cc1ccc(O)cc1)C(=O)N[C@@H](CC(N)=O)C(=O)N[C@@H](CCCN=C(N)N)C(N)=O` [VDKRPYKPRKRPPRRIYNR]: in the assay with Escherichia coli JW0013, the MIC came out at 1.24 µM (≈ 3.1 µg/mL).

In turn, `CC[C@H](C)[C@H](NC(=O)[C@H](CCCN=C(N)N)NC(=O)[C@H](CCCN=C(N)N)NC(=O)[C@@H]1CCCN1C(=O)[C@@H]1CCCN1C(=O)[C@H](CCCN=C(N)N)NC(=O)[C@@H]1CCCN1C(=O)[C@H](CCCN=C(N)N)NC(=O)[C@@H]1CCCN1C(=O)[C@H](CC(C)C)NC(=O)[C@H](Cc1ccc(O)cc1)NC(=O)[C@@H]1CCCN1C(=O)[C@@H]1CCCN1C(=O)[C@H](CCCCN)NC(=O)[C@H](Cc1ccccc1)NC(=O)[C@@H](N)C(C)C)C(=O)N[C@@H](Cc1ccc(O)cc1)C(=O)N[C@@H](CC(N)=O)C(=O)N[C@@H](CCCN=C(N)N)C(N)=O` [VFKPPYLPRPRPPRRIYNR] gave an MIC in the assay on Escherichia coli JW0013 of 1.98 µM (≈ 4.8 µg/mL).

By MIC is commonly meant the lowest concentration found to suppress growth.
